Results on 34 molecules are retold here after patent US12023333B2, “Phenyl-sulfamoyl.benzoyc acids as ERAP1 modulators” (GREY WOLF THERAPEUTICS LIMITED, priority 2019, dated 2024).

What is called IC50 is the concentration that gives 50% inhibition.

SMILES strings stand for the structures.

The target of the test is T1, Purified ERAP1(37-941)-10His (ERAP1) (Homo sapiens, UniProt Q9NZ08).
T1 construct: Purified ERAP1(37-941)-10His (ERAP1); 10His (C)
Briefly: ERAP1 mediated hydrolysis of an amide substrate measured in a biochemical system (10-mer decapeptide substrate). Conditions: 10-mer substrate, 23° C. for 1 h, excitation 279 nm and emission 355 nm; read-out: IC50 vs Decapeptide WRVYEKC(Dnp)ALK-acid (where Dnp is Dinitrophenyl maleimide) (10-mer). The essentials:
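ERAP1(37-941)-10His preincubated with compound in 25 mM Bis-tris propane, 0.05% HPMC, pH 7.75, then reacted 1 h at 23 °C with 10-mer WRVYEKC(Dnp)ALK (100 μM solution added in equal volume). Fluorescence read at ex 279/em 355 nm; IC50 from 4-parameter fit.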

T1 sequence (Q9NZ08 37-941): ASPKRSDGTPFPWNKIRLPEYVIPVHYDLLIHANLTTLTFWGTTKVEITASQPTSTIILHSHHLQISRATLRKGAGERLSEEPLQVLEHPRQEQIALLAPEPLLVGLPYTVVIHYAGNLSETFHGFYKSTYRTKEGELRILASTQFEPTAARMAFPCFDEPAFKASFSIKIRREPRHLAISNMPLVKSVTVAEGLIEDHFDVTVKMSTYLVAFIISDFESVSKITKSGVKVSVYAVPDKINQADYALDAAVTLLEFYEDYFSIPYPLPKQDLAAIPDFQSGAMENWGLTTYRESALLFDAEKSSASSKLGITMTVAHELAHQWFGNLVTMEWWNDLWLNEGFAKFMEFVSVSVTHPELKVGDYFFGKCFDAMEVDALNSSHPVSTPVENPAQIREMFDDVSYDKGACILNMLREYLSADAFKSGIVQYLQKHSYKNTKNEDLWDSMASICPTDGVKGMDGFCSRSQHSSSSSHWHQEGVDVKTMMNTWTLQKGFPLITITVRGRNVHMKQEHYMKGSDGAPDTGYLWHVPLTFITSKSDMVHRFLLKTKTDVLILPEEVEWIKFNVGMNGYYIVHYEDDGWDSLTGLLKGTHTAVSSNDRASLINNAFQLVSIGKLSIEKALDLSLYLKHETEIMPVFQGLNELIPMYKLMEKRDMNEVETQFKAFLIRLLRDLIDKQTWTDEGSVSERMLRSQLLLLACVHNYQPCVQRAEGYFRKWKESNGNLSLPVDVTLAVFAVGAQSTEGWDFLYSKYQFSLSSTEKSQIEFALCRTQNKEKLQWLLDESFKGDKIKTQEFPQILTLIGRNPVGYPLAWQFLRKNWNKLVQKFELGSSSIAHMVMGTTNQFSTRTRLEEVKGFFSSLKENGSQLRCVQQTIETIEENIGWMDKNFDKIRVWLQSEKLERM

On to `N#Cc1cc(NS(=O)(=O)c2cc(C(=O)O)ccc2C2CC2)c(-c2ccccn2)cc1Cl` [Example 132, 3-(N-(4-chloro-5-cyano-2-(pyridin-2-yl)phenyl)sulfamoyl)-4-cyclopropylbenzoic acid], for which the IC50 was less than 500 nM.

`N#Cc1cc(NS(=O)(=O)c2cc(C(=O)O)ccc2C2CC2)c(-c2cccc(F)c2)cc1Cl` [Example 133, 3-(N-(5-chloro-4-cyano-3′-fluoro-[1,1′-biphenyl]-2-yl)sulfamoyl)-4-cyclopropylbenzoic acid]: the IC50 is less than 500 nM.

On to `N#Cc1cc(NS(=O)(=O)c2cc(C(=O)O)ccc2C2CC2)c(-c2ccc(Cl)s2)cc1Cl` [Example 134, 3-(N-(4-chloro-2-(5-chlorothiophen-2-yl)-5-cyanophenyl)sulfamoyl)-4-cyclopropylbenzoic acid], for which the IC50 is less than 500 nM.

As to `O=C(O)c1ccc(C2CC2)c(S(=O)(=O)Nc2cc(-c3ccns3)ccc2-c2ccccc2)c1` [Example 135, 4-cyclopropyl-3-(N-(4-(isothiazol-5-yl)-[1,1′-biphenyl]-2-yl)sulfamoyl)benzoic acid], the IC50 was less than 500 nM.

For `Cc1sncc1-c1ccc(-c2cccc(F)c2)c(NS(=O)(=O)c2cc(C(=O)O)ccc2C2CC2)c1` [Example 136, 4-cyclopropyl-3-(N-(3′-fluoro-4-(5-methylisothiazol-4-yl)-[1,1′-biphenyl]-2-yl)sulfamoyl)benzoic acid], the IC50 is less than 500 nM.

Regarding `O=C(O)c1ccc(C2CC2)c(S(=O)(=O)Nc2cc(-c3ccns3)ccc2-c2cccc(F)c2)c1` [Example 137, 4-cyclopropyl-3-(N-(3′-fluoro-4-(isothiazol-5-yl)-[1,1′-biphenyl]-2-yl)sulfamoyl)benzoic acid], the IC50 was less than 500 nM.

With `Cc1sncc1-c1ccc(-c2cccnc2)c(NS(=O)(=O)c2cc(C(=O)O)ccc2C2CC2)c1` [Example 138, 4-cyclopropyl-3-(N-(5-(5-methylisothiazol-4-yl)-2-(pyridin-3-yl)phenyl)sulfamoyl)benzoic acid], the 50% inhibitory concentration (IC50) is less than 500 nM.

For the molecule `O=C(O)c1ccc(C2CC2)c(S(=O)(=O)Nc2cc(-c3ccns3)ccc2-c2ccccn2)c1` [Example 139, 4-cyclopropyl-3-(N-(5-(isothiazol-5-yl)-2-(pyridin-2-yl)phenyl)sulfamoyl)benzoic acid], the IC50 is less than 500 nM.

For the molecule `Cc1ccc(-c2ccc(-c3cnsc3C)cc2NS(=O)(=O)c2cc(C(=O)O)ccc2C2CC2)s1` [Example 140, 4-cyclopropyl-3-(N-(5-(5-methylisothiazol-4-yl)-2-(5-methylthiophen-2-yl)phenyl)sulfamoyl)benzoic acid], the IC50 was less than 500 nM.

Turning to `O=C(O)c1ccc(C2CC2)c(S(=O)(=O)Nc2cc(-c3ccns3)ccc2-c2ccc(Cl)s2)c1` [Example 141, 3-(N-(2-(5-chlorothiophen-2-yl)-5-(isothiazol-5-yl)phenyl)sulfamoyl)-4-cyclopropylbenzoic acid], the IC50 was less than 500 nM.

In the case of `Cc1sncc1-c1ccc(-c2ccc(F)s2)c(NS(=O)(=O)c2cc(C(=O)O)ccc2C2CC2)c1` [Example 142, 4-cyclopropyl-3-(N-(2-(5-fluorothiophen-2-yl)-5-(5-methylisothiazol-4-yl)phenyl)sulfamoyl)benzoic acid], the IC50 was less than 500 nM.

For `O=C(O)c1ccc(C2CC2)c(S(=O)(=O)Nc2cc(-c3ccns3)ccc2-n2cccc2)c1` [Example 143, 4-cyclopropyl-3-(N-(5-(isothiazol-5-yl)-2-(pyrrol-1-yl)phenyl)sulfamoyl)benzoic acid], the IC50 was less than 500 nM.

As to `Cc1sncc1-c1ccc(-c2ccccn2)c(NS(=O)(=O)c2cc(C(=O)O)ccc2C2CC2)c1` [Example 144, 4-cyclopropyl-3-(N-(5-(5-methylisothiazol-4-yl)-2-(pyridin-2-yl)phenyl)sulfamoyl)benzoic acid], the IC50 was less than 500 nM.

Turning to `O=C(O)c1ccc(C2CC2)c(S(=O)(=O)Nc2cc(-c3cn[nH]c3)ccc2-c2ccccn2)c1` [Example 145], the IC50 was less than 500 nM.

In the case of `O=C(O)c1ccc(C2CC2)c(S(=O)(=O)Nc2cc(-c3ccns3)ccc2-c2cccs2)c1` [Example 146, 4-cyclopropyl-3-(N-(5-(isothiazol-5-yl)-2-(thiophen-2-yl)phenyl)sulfamoyl)benzoic acid], the IC50 is less than 500 nM.

Take `O=C(O)c1ccc(C2CC2)c(S(=O)(=O)Nc2cc(-c3ccns3)ccc2-c2ccc(F)s2)c1` [Example 147, 4-cyclopropyl-3-(N-(2-(5-fluorothiophen-2-yl)-5-(isothiazol-5-yl)phenyl)sulfamoyl)benzoic acid]: the IC50 was less than 500 nM.

Regarding `Cc1sncc1-c1ccc(-c2ccccc2)c(NS(=O)(=O)c2cc(C(=O)O)ccc2C2CC2)c1` [Example 148, 4-cyclopropyl-3-(N-(4-(5-methylisothiazol-4-yl)-[1,1′-biphenyl]-2-yl)sulfamoyl)benzoic acid], the IC50 is less than 500 nM.

`Cc1sncc1-c1ccc(-c2ccc(Cl)s2)c(NS(=O)(=O)c2cc(C(=O)O)ccc2C2CC2)c1` [Example 149, 3-(N-(2-(5-chlorothiophen-2-yl)-5-(5-methylisothiazol-4-yl)phenyl)sulfamoyl)-4-cyclopropylbenzoic acid]: the IC50 was less than 500 nM.

In the case of `Cc1sncc1-c1ccc(-n2cccc2)c(NS(=O)(=O)c2cc(C(=O)O)ccc2C2CC2)c1` [Example 150, 4-cyclopropyl-3-(N-(5-(5-methylisothiazol-4-yl)-2-(pyrrol-1-yl)phenyl)sulfamoyl)benzoic acid], the IC50 was less than 500 nM.

In the case of `O=C(O)c1ccc(C2CC2)c(S(=O)(=O)Nc2cc(C(F)(F)F)ccc2-c2ccsn2)c1` [Example 151, 4-cyclopropyl-3-(N-(2-(isothiazol-3-yl)-5-(trifluoromethyl)phenyl)sulfamoyl)benzoic acid], the IC50 is less than 500 nM.

For the molecule `N#Cc1ccc(-c2ncccc2F)c(NS(=O)(=O)c2cc(C(=O)O)ccc2C2CC2)c1` [Example 152, 3-(N-(5-cyano-2-(3-fluoropyridin-2-yl)phenyl)sulfamoyl)-4-cyclopropylbenzoic acid], the IC50 is less than 500 nM.

On to `N#Cc1ccc(-c2cccc(F)n2)c(NS(=O)(=O)c2cc(C(=O)O)ccc2C2CC2)c1` [Example 153, 3-(N-(5-cyano-2-(6-fluoropyridin-2-yl)phenyl)sulfamoyl)-4-cyclopropylbenzoic acid], for which the IC50 is less than 500 nM.

Take `N#Cc1cc(NS(=O)(=O)c2cc(C(=O)O)ccc2C2CC2)c(-c2ccccn2)cc1F` [Example 154, 3-(N-(5-cyano-4-fluoro-2-(pyridin-2-yl)phenyl)sulfamoyl)-4-cyclopropylbenzoic acid]: the IC50 was less than 500 nM.

For `O=C(O)c1ccc(C2CC2)c(S(=O)(=O)Nc2cc(C(F)(F)F)c(F)cc2-n2cccc2)c1` [Example 155, 4-cyclopropyl-3-(N-(4-fluoro-2-(pyrrol-1-yl)-5-(trifluoromethyl)phenyl)sulfamoyl)benzoic acid], the IC50 was less than 500 nM.

For the molecule `O=C(O)c1ccc(C2CC2)c(S(=O)(=O)Nc2cc(C(F)(F)F)c(Cl)cc2-n2cccc2)c1` [Example 156, 3-(N-(4-chloro-2-(pyrrol-1-yl)-5-(trifluoromethyl)phenyl)sulfamoyl)-4-cyclopropylbenzoic acid], the IC50 is less than 500 nM.

As to `N#Cc1cc(NS(=O)(=O)c2cc(C(=O)O)ccc2C2CC2)c(-n2cccc2)cc1F` [Example 157, 3-(N-(5-cyano-4-fluoro-2-(pyrrol-1-yl)phenyl)sulfamoyl)-4-cyclopropylbenzoic acid], the IC50 is less than 500 nM.

Take `COc1ccc(C(=O)O)cc1S(=O)(=O)Nc1cc(C(F)(F)F)c(Cl)cc1-n1cccc1` [Example 158, 3-(N-(4-chloro-2-(pyrrol-1-yl)-5-(trifluoromethyl)phenyl)sulfamoyl)-4-methoxybenzoic acid]: the 50% inhibitory concentration (IC50) is less than 500 nM.

For `N#Cc1ccc(-c2cscn2)c(NS(=O)(=O)c2cc(C(=O)O)ccc2C2CC2)c1` [Example 159, 3-(N-(5-cyano-2-(thiazol-4-yl)phenyl)sulfamoyl)-4-cyclopropylbenzoic acid], the IC50 was less than 500 nM.

Consider `Cc1oncc1-c1ccc(-c2ccc(F)s2)c(NS(=O)(=O)c2cc(C(=O)O)ccc2C2CC2)c1` [Example 160, 4-cyclopropyl-3-(N-(2-(5-fluorothiophen-2-yl)-5-(5-methylisoxazol-4-yl)phenyl)sulfamoyl)benzoic acid], for which the IC50 is less than 500 nM.

In the case of `N#Cc1cc(NS(=O)(=O)c2cc(C(=O)O)ccc2C2CC2)c(-n2cccc2)cc1Cl` [Example 161, 3-(N-(4-chloro-5-cyano-2-(pyrrol-1-yl)phenyl)sulfamoyl)-4-cyclopropylbenzoic acid], the IC50 was less than 500 nM.

For the molecule `COc1ccc(C(=O)O)cc1S(=O)(=O)Nc1cc(C(F)(F)F)c(F)cc1-n1cccc1` [Example 162, 3-(N-(4-fluoro-2-(pyrrol-1-yl)-5-(trifluoromethyl)phenyl)sulfamoyl)-4-methoxybenzoic acid], the half-maximal inhibitory concentration (IC50) is less than 500 nM.

`N#Cc1ccc(-c2nccs2)c(NS(=O)(=O)c2cc(C(=O)O)ccc2C2CC2)c1` [Example 163, 3-(N-(5-cyano-2-(thiazol-2-yl)phenyl)sulfamoyl)-4-cyclopropylbenzoic acid]: the IC50 was less than 500 nM.

As for `Cc1oncc1-c1ccc(-c2ccc(Cl)s2)c(NS(=O)(=O)c2cc(C(=O)O)ccc2C2CC2)c1` [Example 164, 3-(N-(2-(5-chlorothiophen-2-yl)-5-(5-methylisoxazol-4-yl)phenyl)sulfamoyl)-4-cyclopropylbenzoic acid], the IC50 is less than 500 nM.

On to `N#Cc1ccc(-c2cccnn2)c(NS(=O)(=O)c2cc(C(=O)O)ccc2C2CC2)c1` [Example 165, 3-(N-(5-cyano-2-(pyridazin-3-yl)phenyl)sulfamoyl)-4-cyclopropylbenzoic acid], for which the IC50 was less than 500 nM.
